This is an account of results in patent US20100311782A1, “SUBSTITUTED PIPERIDINYLPROPANOIC ACID COMPOUNDS AND METHODS OF THEIR USE” (priority 2009, published 2010).

Data set [1] concerns the target T1, cloned human δ opioid receptor (Homo sapiens, UniProt P41143).
T1 construct: expressed in transfected cells
Kind of data set: Receptor binding, [3H]diprenorphine displacement, delta opioid receptor.

A short description of the next data set: Dog PK. The data set is classed as in vivo. The following applies: for AUC0-t: 6 mg/kg, individual dogs; for bioavailability: single PO dose of 6 mg/kg, read-out: oral bioavailability (F); for AUC: mean of three dogs. The procedure: The PO dose formulations were prepared on the day of dosing by dissolving 33.16 mg of test material in 60 mL of sterile water to achieve a concentration of 0.5526 mg/mL total compound (0.5 mg/mL test compound). The dosing solution was vortexed to ensure homogeneity and dissolution.
The dose formulation was administered via oral gavage per facility SOPs. Each dog received a single PO dose of 6 mg/kg.
(§1) All blood samples were collected from a peripheral vessel. Approximately 0.3 mL blood was collected at each time point. All blood samples were placed on wet ice until processed for plasma.
Blood samples were processed for plasma by centrifugation at approximately 5° C. Plasma samples were stored in polypropylene tubes, quick frozen over dry ice and kept at −70±10° C. until LC/MSMS analysis.
(§2) Plasma concentrations were determined by high performance liquid chromatography with tandem mass spectrometric detection (LC/MS/MS) after protein precipitation.
(§3) Plasma concentration versus time data was analyzed by non-compartmental approaches using the WinNonlin software program (version 5.0.1, Pharsight, Mountain View, Calif.).

Data set [2] addresses T2, cloned human μ opioid receptor (Homo sapiens, UniProt P35372).
T2 construct: expressed in transfected cells
Kind of data set: Receptor binding, [3H]diprenorphine displacement, mu opioid receptor. The following applies: for Ki: [3H]diprenorphine, cloned human mu opioid receptor; for DOR/MOR Ratio: ratio of DOR Ki to MOR Ki.

Another data set in a line: Primate PK. The data set is classed as in vivo, monkey. Conditions: for AUC0-t / Cmax: 1 mg/kg; for bioavailability: single PO dose of 1 mg/kg, read-out: oral bioavailability (F). The procedure:
The dose formulations were prepared on the day of dosing by dissolving 33.16 mg of test material in 60 mL of sterile water to achieve a concentration of 0.5526 mg/mL total compound (0.5 mg/mL test compound). The dosing solution was vortexed to ensure homogeneity and dissolution.
The dose formulation was administered via oral gavage per facility SOPs. Each monkey received a single PO dose of 1 mg/kg as a 0.5% MC suspension.
as §1
Blood samples were processed for plasma by centrifugation at approximately 5° C. Plasma samples were be stored in polypropylene tubes, quick frozen over dry ice and kept at −70±10° C. until LC/MSMS analysis.
as §2, §3

Data set [3] concerns morphine-slowed gastrointestinal transit (GIT). Kind of data set: Mouse Gastrointestinal Transit (GIT) Assay, antagonism of the anti-transit effect of morphine. Conditions: for recovery of the pre-opioid treatment efficacy of GIT: one hour after a 3 mg/kg dose, morphine 3 mg/kg s.c. The data set is classed as in vivo, mice. On the procedure: Male Swiss-Webster mice (25-30 g) obtained from Ace Animals (Boyertown, Pa.) were used for all experiments. Mice were housed 4/cage in polycarbonate cages with food and water available ad libitum. Mice were on a 12 hours light:dark schedule with lights on at 6:30 a.m. All experiments were performed during the light cycle. Mice were fasted the night before the experiment, with water available ad libitum.
Compounds were administered in a volume of 0.1 ml/10 g of body weight. Morphine (3 mg/kg) or vehicle (0.9% saline) was administered s.c. 35 min to induce slowed GIT, prior to determination of GIT. Ten minutes after the morphine treatment, mice were administered 0.2 ml of a charcoal meal orally. The charcoal meal consisted of a slurry of charcoal, flour, and water in the following ratio (1:2:8, w:w:v). Twenty-five minutes after receiving the charcoal meal, the mice were euthanized with CO2 and GIT was determined.
GIT is expressed as % GIT by the following formula: […]
For each test agent, a value for % Antagonism (% A) was determined for the 2 and 6 hr antagonist pretreatment. Using the mean % GIT for each treatment group, % A was calculated using the following formula: […]

A further data set is described as follows: Rat PK. The data set is classed as in vivo. Conditions: rats; for bioavailability: male, Sprague-Dawley, rat, plasma, read-out: oral bioavailability (F). The procedure: Jugular vein cannulated (JVC) male Sprague-Dawley (SD) rats (Charles River, Raleigh, N.C.) were housed individually in polycarbonate cages on alpha-dri bedding in an environmentally controlled room with a 12 hour light-dark cycle. Rats were allowed to acclimate for 3-5 days prior to the study. Animals were fasted overnight prior to drug administration and were fed after the 4 h blood collection.
The suspension used for PO administration was prepared at a nominal concentration of 2 mg/mL of test agent in 0.5% methylcellulose with 0.1% Tween®80.
Two groups of three JVC rats each received a single PO dose of 10 mg/kg. The PO dose was administered by oral gavage in a dosing volume of 5 mL/kg. Blood samples (0.6 mL) were collected via jugular vein cannula at predose, 15 and 30 minutes and 1, 2, 4, 6, 8 and 24 h postdose in EDTA-containing tubes. Plasma was obtained by centrifugation at 3000 rpm for 15 minutes. The samples were stored at −20° C. until analysis.
Plasma aliquots were deproteinized with internal standard solution in acetonitrile. The samples were vortexed, centrifuged and an aliquot of the supernatant was mixed with water. The diluted aliquot was then analyzed.
as §2
Model-independent analyses were performed to evaluate the pharmacokinetics. The area under the concentration-time curve (AUC) and the area under the first moment curve (AUMC) were calculated from zero to 6 or 8 hours post-dose using the linear trapezoidal method with extrapolation to infinity. The terminal elimination rate constant (kel) and half-life (t1/2) were calculated by linear least-squares regression of log-transformed concentration-time data. Systemic plasma clearance (CLs) was computed from Dose/AUC. Volume of distribution at steady state (Vdss) was calculated from Dose·AUMC/AUC^2. WinNonlin® Professional software (Pharsight Corporation) was used to generate all pharmacokinetic data.

Data set [4] deals with T3, cloned human κ opioid receptor (Homo sapiens, UniProt P41145).
T3 construct: expressed in transfected cells
T3 sequence (P41145 whole entry): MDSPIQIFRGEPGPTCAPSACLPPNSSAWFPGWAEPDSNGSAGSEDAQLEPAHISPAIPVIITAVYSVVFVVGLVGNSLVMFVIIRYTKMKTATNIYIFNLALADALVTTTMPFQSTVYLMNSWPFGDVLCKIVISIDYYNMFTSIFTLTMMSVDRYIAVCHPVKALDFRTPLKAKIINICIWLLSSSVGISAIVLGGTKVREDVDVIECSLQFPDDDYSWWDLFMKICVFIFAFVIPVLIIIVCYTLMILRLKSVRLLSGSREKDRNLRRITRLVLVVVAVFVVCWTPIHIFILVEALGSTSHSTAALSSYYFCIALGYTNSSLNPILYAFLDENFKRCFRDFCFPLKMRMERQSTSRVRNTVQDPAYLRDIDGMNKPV
Kind of data set: Receptor binding, [3H]diprenorphine displacement, kappa opioid receptor.

The mark [5] stands for this setting: individual monkeys, PO 1 mg/kg, lithium salt.
[6] abbreviates: [3H]diprenorphine, cloned human kappa opioid receptor, read-out: KOR Ki.

Where “and” joins values, the source holds several entries; their conditions need not be identical. Equal values may be shown once. Where a name gives a salt, the structure may show the parent alone. Read-outs that look alike come from different tables or passages of the source.

T2 sequence (P35372 whole entry): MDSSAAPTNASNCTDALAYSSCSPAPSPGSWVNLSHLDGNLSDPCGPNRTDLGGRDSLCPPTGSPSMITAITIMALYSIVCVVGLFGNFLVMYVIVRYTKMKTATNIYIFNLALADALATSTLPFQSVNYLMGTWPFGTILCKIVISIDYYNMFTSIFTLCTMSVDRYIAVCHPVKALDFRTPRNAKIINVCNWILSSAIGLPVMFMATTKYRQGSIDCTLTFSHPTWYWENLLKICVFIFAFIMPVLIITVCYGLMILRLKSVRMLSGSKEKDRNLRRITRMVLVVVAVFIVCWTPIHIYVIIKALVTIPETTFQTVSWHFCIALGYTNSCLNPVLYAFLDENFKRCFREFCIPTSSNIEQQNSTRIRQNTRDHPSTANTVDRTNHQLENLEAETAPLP
T1 sequence (P41143 whole entry): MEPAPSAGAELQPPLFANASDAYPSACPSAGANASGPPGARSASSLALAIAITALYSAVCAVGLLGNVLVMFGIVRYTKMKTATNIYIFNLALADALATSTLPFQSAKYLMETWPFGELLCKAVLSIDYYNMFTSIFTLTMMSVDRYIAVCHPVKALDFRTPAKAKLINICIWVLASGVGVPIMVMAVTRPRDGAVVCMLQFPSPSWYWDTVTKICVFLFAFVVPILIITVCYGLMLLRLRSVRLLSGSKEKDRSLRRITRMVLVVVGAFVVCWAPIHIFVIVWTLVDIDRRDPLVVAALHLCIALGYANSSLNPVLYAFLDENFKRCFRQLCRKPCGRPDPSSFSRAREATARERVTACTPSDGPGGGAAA

Usually Ki stands for the equilibrium dissociation constant of an inhibitor or competing ligand from its target. One may read the bioavailability as the share of a dose that reaches the circulation, judged against a reference dose that is usually intravenous. The AUC is concentration integrated over time. Read a high AUC as more exposure. One may read the Cmax as the maximum level reached in the sampled fluid or tissue. Regarding `C[C@H]1CN(C[C@H](Cc2ccccc2)C(=O)[O-])CC[C@@]1(C)c1cccc(C(N)=O)c1.[Li+]` [Example 1, (S)-2-benzyl-3-((3R,4R)-4-(3-carbamoylphenyl)-3,4-dimethylpiperidin-1-yl)propanoic acid, lithium salt], the inhibition constant Ki in data set [1] (DOR Ki) is 340 nM; in data set [2] (MOR Ki) it was 11.2 nM. The AUC0-t in “Dog PK” (dog, in vivo, po, PO 6 mg/kg, read-out: AUC0-t) is 183 ng·h/mL; in “Dog PK” (PO 6 mg/kg, lithium salt) it was 250 ng·h/mL and 344 ng·h/mL; in “Primate PK” (setting [5]) it was 87 ng·h/mL and 132 ng·h/mL; in “Primate PK” (monkey, in vivo, po, individual monkeys, PO 1 mg/kg, read-out: AUC0-t), 103 ng·h/mL. The bioavailability in the data set “Dog PK” (dog, in vivo, dogs) came to 30%; in “Primate PK” (monkey, in vivo, monkeys), 10%. Further, in the data set “Dog PK” (dog, in vivo, PO 6 mg/kg), the area under the curve (AUC) worked out at 259 ± 81 ng·h/mL. Further, the “improvement in the mean AUC value as compared to Example C-3” value in “Dog PK” (dogs, PO 6 mg/kg) is given as “approximately 4 fold”. Moreover, the “increase in mean concentration in plasma as compared to C-3” value in the data set “Dog PK” (dogs, PO 6 mg/kg) is listed as “approximately 3 fold”. Besides, the “DOR/MOR Ratio” value in data set [2] is given as 30. Further, the maximum concentration (Cmax) in “Primate PK” (setting [5]) is 29.5 ng/mL and 20.8 ng/mL and 44.6 ng/mL; in the data set “Primate PK” (monkey, in vivo, po, mean of three monkeys, PO 1 mg/kg, read-out: Mean Cmax ± SD) it was 32 ± 12 ng/mL; in the data set “Primate PK” (monkey, in vivo, po, monkeys, PO 1 mg/kg, mean ± SD, text of b284, read-out: Cmax), 32 ± 12 ng/mL. The “fold higher maximum plasma concentration (Cmax) as compared to Example C-3” value in the data set “Primate PK” (monkeys, PO 1 mg/kg) was found to be 18.3 fold. The “AUC values (h * percent antagonism (0-6 h))” value in data set [3] (mice, 3 mg/kg orally, 0-6 h) stood at 408.8 h * percent antagonism. Also, the “recovery of the pre-opioid treatment efficacy of GIT” value in data set [3] (mice) is recorded as about 90%. The “AUC value (GIT antagonism) times greater than that of Example C-2” value in data set [3] (mouse, in vivo) was found to be 2.1 times.
As to `C[C@H]1CN(C[C@H](Cc2ccccc2)C(=O)[O-])CC[C@@]1(C)c1cccc(C(N)=O)c1.[Na+]` [Example 2, (S)-2-benzyl-3-((3R,4R)-4-(3-carbamoylphenyl)-3,4-dimethylpiperidin-1-yl)propanoic acid, sodium salt], the Ki in data set [1] (DOR Ki) was determined as 308 nM; in data set [2] (MOR Ki) it was 17.3 nM. For the same molecule, the “DOR/MOR Ratio” value in data set [2] was 18. The bioavailability in “Rat PK” (single PO dose of 10 mg/kg) is 11%.
On to `C[C@H]1CN(C[C@H](Cc2ccccc2)C(=O)O)CC[C@@]1(C)c1cccc(C(N)=O)c1.O=C(O)C(F)(F)F` [Example 3, (S)-2-benzyl-3-((3R,4R)-4-(3-carbamoylphenyl)-3,4-dimethylpiperidin-1-yl)propanoic acid, trifluoroacetate salt], for which the inhibition constant Ki worked out at 397 nM in data set [1] (DOR Ki) and 12.4 nM in data set [2] (MOR Ki). Besides, the “DOR/MOR Ratio” value in data set [2] came out at 32. Besides, the bioavailability in “Rat PK” (single PO dose of 10 mg/kg) stood at 8%. For the same molecule, the “improvement in oral bioavailability as compared to Example C-2” value in “Rat PK” (PO 10 mg/kg) is reported as “approximately 8 fold”.
As to `C[C@H]1CN(C[C@H](Cc2ccccc2)C(=O)O)CC[C@@]1(C)c1cccc(C(N)=O)c1` [Example 4, (S)-2-Benzyl-3-((3R,4R)-4-(3-carbamoylphenyl)-3,4-dimethylpiperidin-1-yl)propanoic acid], the Ki was 460 nM in data set [1] (DOR Ki) and 14 nM in data set [2] (MOR Ki). Moreover, the “DOR/MOR Ratio” value in data set [2] is recorded as 33.
As to `C[C@H]1CN(C[C@H](Cc2ccccc2)C(=O)O)CC[C@@]1(C)c1cccc(C(N)=O)c1` [Example 5, (S)-2-benzyl-3-((3R,4R)-4-(3-carbamoylphenyl)-3,4-dimethylpiperidin-1-yl)propanoic acid, oxalic acid salt], the inhibitory constant (Ki) in data set [1] (DOR Ki) was 310 nM; in data set [2] (MOR Ki), 16.9 nM; in data set [4] it was over 10000 nM.
As to `C[C@H]1CN(C[C@H](Cc2ccccc2)C(=O)O)CC[C@@]1(C)c1cccc(C(N)=O)c1` [Example 6, (S)-2-benzyl-3-((3R,4R)-4-(3-carbamoylphenyl)-3,4-dimethylpiperidin-1-yl)propanoic acid, succinic acid salt], the inhibition constant (Ki) was 527 nM in data set [1] (DOR Ki) and 18.1 nM in data set [2] (MOR Ki).
Turning to `C[C@H]1CN(C[C@@H](Cc2ccccc2)C(=O)NCC(=O)O)CC[C@@]1(C)c1cccc(C(N)=O)c1.O=C(O)C(F)(F)F` [Example C-2, [[2(R)-[[4(R)-(3-Amidophenyl)-3(R),4-dimethyl-1-piperidinyl]methyl]-1-oxo-3-phenylpropyl]amino]acetic acid, trifluoromethylacetate salt, reference compound], the Ki came out at 85 nM in data set [1] (read-out: DOR Ki), 2.6 nM in data set [2] (read-out: MOR Ki) and 660 nM in data set [4] (setting [6]). The “times more potent than Example 1 as an MOR antagonist in the opioid receptor binding assay” value in data set [2] (C-2 versus Example 1, Table I) is given as 4.3 times. Further, in data set [2], the “DOR/MOR Ratio” value worked out at 33. Moreover, in “Rat PK” (single PO dose of 10 mg/kg), the “oral bioavailability (F)” value is on record as about 1%. Also, in data set [3] (mice), the “recovery of the pre-opioid treatment efficacy of GIT” value came to 50%. In addition, the “AUC values (h * percent antagonism (0-6 h))” value in data set [3] (mouse, in vivo, po, 3 mg/kg) stood at 191.5 h * percent antagonism.
Consider `CC1CN(CC(Cc2ccccc2)C(=O)NCC(=O)O)CCC1(C)c1cccc(C(N)=O)c1` [Example C-3, [[2(R)-[[4(R)-(3-Amidophenyl)-3(R),4-dimethyl-1-piperidinyl]methyl]-1-oxo-3-phenylpropyl]amino]acetic acid, sodium salt, reference compound], for which the values for the inhibitory constant (Ki) in data set [1] (DOR Ki), in data set [2] (MOR Ki) and in data set [4] (setting [6]) were 98 nM, 2.9 nM and 930 nM, respectively. Also, the AUC0-t was 81 ng·h/mL in the data set “Dog PK” (dog, plasma, po, PO 6 mg/kg, read-out: AUC0-t); 54 ng·h/mL and 53 ng·h/mL in the data set “Dog PK” (PO 6 mg/kg, sodium salt). The bioavailability in the data set “Dog PK” (dog, plasma, dogs) is 11%; in the data set “Primate PK” (monkey, plasma, monkeys), under 2%. This molecule also came in with an area under the curve (AUC) in the data set “Dog PK” (dog, plasma, PO 6 mg/kg) of 63 ± 16 ng·h/mL. In addition, the “DOR/MOR Ratio” value in data set [2] is on record as 34. The maximum concentration (Cmax) in “Primate PK” (individual monkeys, PO 1 mg/kg, sodium salt) was 1.81 ng/mL and 1.74 ng/mL; in “Primate PK” (monkey, plasma, po, individual monkeys, PO 1 mg/kg, read-out: Cmax), 1.7 ng/mL; in the data set “Primate PK” (monkey, plasma, po, mean of three monkeys, PO 1 mg/kg, read-out: Mean Cmax ± SD) it was 1.75 ± 0.06 ng/mL.
